Data taken from PubChem BioAssay (NCI).
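Test compounds were applied to cells in 96-well plates for 48 hours at 5 doses. Definition used: TGI = concentration required for complete inhibition of growth.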

How the values were obtained:
Experiment in all cases: NCI anticancer screen, dose series, 48 h
786-0 renal = system: 786-0 renal
A498 renal = system: A498 renal
A549 NSCLC = system: A549 NSCLC
ACHN renal = system: ACHN renal
CAKI-1 renal = system: CAKI-1 renal
CCRF-CEM leukemia = system: CCRF-CEM leukemia
COLO 205 colon = system: COLO 205 colon
DLD-1 colon = system: DLD-1 colon
DU-145 prostate = system: DU-145 prostate
EKVX NSCLC = system: EKVX NSCLC
HCC-2998 colon = system: HCC-2998 colon
HCT-116 colon = system: HCT-116 colon
HL-60(TB) leukemia = system: HL-60(TB) leukemia
HOP-18 NSCLC = system: HOP-18 NSCLC
HOP-92 NSCLC = system: HOP-92 NSCLC
HT29 colon = system: HT29 colon
IGROV1 ovarian = system: IGROV1 ovarian
K-562 leukemia = system: K-562 leukemia
KM12 colon = system: KM12 colon
KM20L2 colon = system: KM20L2 colon
LOX IMVI melanoma = system: LOX IMVI melanoma
LXFL 529 NSCLC = system: LXFL 529 NSCLC
M14 melanoma = system: M14 melanoma
M19-MEL melanoma = system: M19-MEL melanoma
MALME-3M melanoma = system: MALME-3M melanoma
MOLT-4 leukemia = system: MOLT-4 leukemia
NCI-H226 lung = system: NCI-H226 lung
NCI-H23 lung = system: NCI-H23 lung
NCI-H460 lung = system: NCI-H460 lung
NCI-H522 lung = system: NCI-H522 lung
OVCAR-3 ovarian = system: OVCAR-3 ovarian
OVCAR-4 ovarian = system: OVCAR-4 ovarian
OVCAR-5 ovarian = system: OVCAR-5 ovarian
OVCAR-8 ovarian = system: OVCAR-8 ovarian
RPMI-8226 leukemia = system: RPMI-8226 leukemia
RXF 393 renal = system: RXF 393 renal
SF-268 CNS = system: SF-268 CNS
SF-295 CNS = system: SF-295 CNS
SF-539 CNS = system: SF-539 CNS
SK-MEL-2 melanoma = system: SK-MEL-2 melanoma
SK-MEL-28 melanoma = system: SK-MEL-28 melanoma
SK-MEL-5 melanoma = system: SK-MEL-5 melanoma
SK-OV-3 ovarian = system: SK-OV-3 ovarian
SN12C renal = system: SN12C renal
SNB-19 CNS = system: SNB-19 CNS
SNB-75 CNS = system: SNB-75 CNS
SR leukemia = system: SR leukemia
SW-620 colon = system: SW-620 colon
TK-10 renal = system: TK-10 renal
U251 CNS = system: U251 CNS
UACC-257 melanoma = system: UACC-257 melanoma
UACC-62 melanoma = system: UACC-62 melanoma
UO-31 renal = system: UO-31 renal
XF 498 CNS = system: XF 498 CNS
BT-549 breast = system: BT-549 breast
HCT-15 colon = system: HCT-15 colon
HOP-62 NSCLC = system: HOP-62 NSCLC
HS 578T breast = system: HS 578T breast
MCF7 breast = system: MCF7 breast
MDA-MB-231 breast = system: MDA-MB-231 breast
MDA-MB-435 = system: MDA-MB-435
MDA-N = system: MDA-N
NCI/ADR-RES ovarian = system: NCI/ADR-RES ovarian
PC-3 prostate = system: PC-3 prostate
T-47D breast = system: T-47D breast

**Q.** Which results are given for `C[N+](C)(C)CC(=O)N/N=C/c1oc(-c2c(O)ccc3ccccc23)c(-c2c(O)ccc3ccccc23)c1[N+](=O)[O-]`?
**A.** TGI (786-0 renal): 44.3 µM; TGI (A498 renal): 31.6 µM; TGI (A549 NSCLC): 81.5 µM; TGI (ACHN renal): 32.5 µM; TGI (CAKI-1 renal): 75.5 µM; TGI (CCRF-CEM leukemia): 76.7 µM; TGI (COLO 205 colon): 42.2 µM; TGI (DLD-1 colon): 54.6 µM; TGI (DU-145 prostate): 47.6 µM; TGI (EKVX NSCLC): 45 µM; TGI (HCC-2998 colon): 34.3 µM; TGI (HCT-116 colon): 24.7 µM; TGI (HL-60(TB) leukemia): 66.6 µM; TGI (HOP-18 NSCLC): 62.8 µM; TGI (HOP-92 NSCLC): 50.9 µM; TGI (HT29 colon): 38.5 µM; TGI (IGROV1 ovarian): 44.2 µM; TGI (K-562 leukemia): > 100 µM; TGI (KM12 colon): 38.9 µM; TGI (KM20L2 colon): 36 µM; TGI (LOX IMVI melanoma): 33.3 µM; TGI (LXFL 529 NSCLC): > 100 µM; TGI (M14 melanoma): 37.2 µM; TGI (M19-MEL melanoma): 60.8 µM; TGI (MALME-3M melanoma): 28.2 µM; TGI (MOLT-4 leukemia): 62.3 µM; TGI (NCI-H226 lung): 36.3 µM; TGI (NCI-H23 lung): 37.2 µM; TGI (NCI-H460 lung): 49.3 µM; TGI (NCI-H522 lung): 31.1 µM; TGI (OVCAR-3 ovarian): 44.2 µM; TGI (OVCAR-4 ovarian): 80.8 µM; TGI (OVCAR-5 ovarian): 60.1 µM; TGI (OVCAR-8 ovarian): 78.6 µM; TGI (RPMI-8226 leukemia): > 100 µM; TGI (RXF 393 renal): 26.8 µM; TGI (SF-268 CNS): 47.3 µM; TGI (SF-295 CNS): 47.4 µM; TGI (SF-539 CNS): 29.4 µM; TGI (SK-MEL-2 melanoma): 33.4 µM; TGI (SK-MEL-28 melanoma): 49.2 µM; TGI (SK-MEL-5 melanoma): 22.9 µM; TGI (SK-OV-3 ovarian): 36.3 µM; TGI (SN12C renal): 92.7 µM; TGI (SNB-19 CNS): > 100 µM; TGI (SNB-75 CNS): 61.1 µM; TGI (SR leukemia): 58.3 µM; TGI (SW-620 colon): > 100 µM; TGI (TK-10 renal): 87.1 µM; TGI (U251 CNS): 47.8 µM; TGI (UACC-257 melanoma): 51.9 µM; TGI (UACC-62 melanoma): 18.6 µM; TGI (UO-31 renal): 36 µM; TGI (XF 498 CNS): 55.5 µM

**Q.** For `Cn1c2ccccc2c2c(-c3ccccc3)cc3c(c21)C(=O)C=CC3=O`, which TGI (786-0 renal) is on record?
**A.** 2.99 µM

**Q.** And the TGI (A498 renal)?
**A.** 6.18 µM

**Q.** And the TGI (A549 NSCLC)?
**A.** > 10 µM

**Q.** What about the TGI (ACHN renal) of the same molecule?
**A.** 3.04 µM

**Q.** What about the TGI (BT-549 breast) of the same molecule?
**A.** 3.04 µM

**Q.** And the TGI (CAKI-1 renal)?
**A.** 4.07 µM

**Q.** And the TGI (CCRF-CEM leukemia)?
**A.** 0.538 µM

**Q.** And the TGI (COLO 205 colon)?
**A.** 2.05 µM

**Q.** And the TGI (DU-145 prostate)?
**A.** > 10 µM

**Q.** And the TGI (EKVX NSCLC)?
**A.** > 8.39 µM

**Q.** What about the TGI (HCC-2998 colon) of the same molecule?
**A.** > 8.05 µM

**Q.** And the TGI (HCT-116 colon)?
**A.** 2.91 µM

**Q.** And the TGI (HCT-15 colon)?
**A.** 5.41 µM

**Q.** And the TGI (HL-60(TB) leukemia)?
**A.** 1.1 µM

**Q.** And the TGI (HOP-62 NSCLC)?
**A.** > 10 µM

**Q.** What about the TGI (HOP-92 NSCLC) of the same molecule?
**A.** 3.78 µM

**Q.** And the TGI (HS 578T breast)?
**A.** 9.62 µM

**Q.** What about the TGI (HT29 colon) of the same molecule?
**A.** > 9 µM

**Q.** What about the TGI (IGROV1 ovarian) of the same molecule?
**A.** 5.5 µM

**Q.** And the TGI (K-562 leukemia)?
**A.** > 3.46 µM

**Q.** What about the TGI (KM12 colon) of the same molecule?
**A.** > 8.77 µM

**Q.** And the TGI (LOX IMVI melanoma)?
**A.** > 10 µM

**Q.** What about the TGI (M14 melanoma) of the same molecule?
**A.** 3.4 µM

**Q.** And the TGI (MALME-3M melanoma)?
**A.** 4.17 µM

**Q.** And the TGI (MCF7 breast)?
**A.** 4.35 µM

**Q.** What about the TGI (MDA-MB-231 breast) of the same molecule?
**A.** 5.72 µM

**Q.** And the TGI (MDA-MB-435)?
**A.** 4.32 µM

**Q.** What about the TGI (MDA-N) of the same molecule?
**A.** > 7.18 µM

**Q.** And the TGI (MOLT-4 leukemia)?
**A.** 1.1 µM

**Q.** What about the TGI (NCI-H226 lung) of the same molecule?
**A.** 5.04 µM

**Q.** And the TGI (NCI-H23 lung)?
**A.** 3.81 µM

**Q.** What about the TGI (NCI-H460 lung) of the same molecule?
**A.** > 10 µM

**Q.** What about the TGI (NCI-H522 lung) of the same molecule?
**A.** 2.74 µM

**Q.** And the TGI (NCI/ADR-RES ovarian)?
**A.** > 9.15 µM

**Q.** What about the TGI (OVCAR-3 ovarian) of the same molecule?
**A.** 4.03 µM

**Q.** And the TGI (OVCAR-4 ovarian)?
**A.** 5.75 µM

**Q.** What about the TGI (OVCAR-5 ovarian) of the same molecule?
**A.** > 10 µM

**Q.** What about the TGI (OVCAR-8 ovarian) of the same molecule?
**A.** 5.12 µM

**Q.** And the TGI (PC-3 prostate)?
**A.** > 6.39 µM

**Q.** What about the TGI (RPMI-8226 leukemia) of the same molecule?
**A.** 4.8 µM

**Q.** What about the TGI (RXF 393 renal) of the same molecule?
**A.** 3.83 µM

**Q.** And the TGI (SF-268 CNS)?
**A.** > 9.19 µM

**Q.** And the TGI (SF-295 CNS)?
**A.** > 10 µM

**Q.** What about the TGI (SF-539 CNS) of the same molecule?
**A.** 4.29 µM

**Q.** What about the TGI (SK-MEL-2 melanoma) of the same molecule?
**A.** > 7.25 µM

**Q.** What about the TGI (SK-MEL-28 melanoma) of the same molecule?
**A.** 4.34 µM

**Q.** What about the TGI (SK-MEL-5 melanoma) of the same molecule?
**A.** > 9.24 µM

**Q.** What about the TGI (SK-OV-3 ovarian) of the same molecule?
**A.** > 10 µM

**Q.** What about the TGI (SN12C renal) of the same molecule?
**A.** 5.76 µM

**Q.** What about the TGI (SNB-19 CNS) of the same molecule?
**A.** > 10 µM

**Q.** What about the TGI (SNB-75 CNS) of the same molecule?
**A.** > 9.66 µM

**Q.** What about the TGI (SR leukemia) of the same molecule?
**A.** 0.817 µM

**Q.** And the TGI (SW-620 colon)?
**A.** 2.21 µM

**Q.** What about the TGI (T-47D breast) of the same molecule?
**A.** 4.9 µM

**Q.** What about the TGI (TK-10 renal) of the same molecule?
**A.** 3.4 µM

**Q.** What about the TGI (U251 CNS) of the same molecule?
**A.** > 9.67 µM

**Q.** What about the TGI (UACC-257 melanoma) of the same molecule?
**A.** 4.62 µM

**Q.** What about the TGI (UACC-62 melanoma) of the same molecule?
**A.** 2.64 µM

**Q.** What about the TGI (UO-31 renal) of the same molecule?
**A.** 3.37 µM
